Measurements: patent publication US9872859B2, “Materials and methods for targeting therapeutic compositions to gut-associated lymphoid tissue (GALT)” (THE FLORIDA INTERNATIONAL UNIVERSITY BOARD OF TRUSTEES, priority 2016, dated 2018)

Experiments:
HIV-1 1Ba-L = assay: Anti-HIV activity in HIV-infected primary human macrophages (p24 ELISA); assay type: cell-based; conditions: 70 ug/ml
Source text: The nanodrug was further investigated for anti-HIV activity in primary human macrophage and M-cell culture model, respectively. Human peripheral blood mononuclear cells (PBMC) were isolated from healthy donor and differentiated to macrophages as per previously published protocol^23. Briefly, PBMC were isolated with Ficoll-Hypaque (Pharmacia) gradient and cells were allowed to differentiate for 7 days in the presence of human macrophage colony stimulating factor (MCSF, Sigma) to macrophages. Following 7 days of incubation, macrophages were infected with HIV-1 1Ba-L (NIH AIDS research and reference reagent program. Cat#510) (100 ng/ml) and incubated for 24 hrs. The next day, cells were thoroughly washed to get rid of any unattached virus particle and fresh media was added. At the same time, same concentration (70 ug/ml) of nanodrug and unformulated drug (EFV) were added to these cells separately. The HIV infected macrophages were served as control. The nanodrug/EFV drug treated cells were monitored for up to 10 days along with infected control cells. The cell supernatant was collected at day 0, 1, 3, 5, 7 and 10 days post treatment. The viral p24 level in the supernatant was measured with p24 ELISA assay (Cat. #0801200, Zeptometrix, USA). The minimum assay detection limit for p24 antigen by ELISA was 7.8 pg/ml as provided by the manufacturer. […]

HIV-1Ba-L = assay: Anti-HIV activity in in vitro M-cell culture model with HIV-infected Raji cells (p24 ELISA); assay type: cell-based; conditions: 70 ug/ml; for HIV replication (p24 level in culture supernatant) over time: infected Raji cells
Experimental: The nanodrug was further investigated for anti-HIV activity in primary human macrophage and M-cell culture model, respectively. Simultaneously, a parallel anti-HIV activity study was set up in an in vitro model of M-cell. In this model, Raji cells were exposed with HIV-1Ba-L at the concentration of (100 ng/ml) for 24 hrs in a co-culture and then washed from unattached viral particles^24,25. Following that, same concentration (70 ug/ml) of nanodrug and EFV were added to M-cell culture model separately. […] The untreated Raji cells were kept as a control for all the experiments related to drug activity. In the M-cell culture model, infected Raji cells were also treated with EFV to compare with nanodrug. The effect of nanodrug on HIV replication was measured for up to 10 days post treatment in culture supernatant.

## O=C1Nc2ccc(Cl)cc2[C@@](C#CC2CC2)(C(F)(F)F)O1 [EFV, efavirenz]
HIV-1 1Ba-L; day 0-10 post treatment
  HIV replication (p24 level in culture supernatant) over time: immediate inhibition of viral replication on day 1 and following that there was increase of viral p24 level
HIV-1 1Ba-L; day 10
  p24 level at end of experiment: increased up to the level of untreated cells
HIV-1Ba-L; day 10
  p24 level within day 10: increased closer to the level of untreated cells
HIV-1Ba-L; up to day 10
  HIV replication (p24 level in culture supernatant) over time: immediate reduction of viral replication
HIV-1Ba-L; up to day 10, listed as free EFV
  HIV replication (p24 level in culture supernatant) over time: immediate decrease in viral replication as expected; however, rebound of viral p24 level within day ten
